{"source": "patent US20110212181A1", "about": "“COMPOSITIONS AND METHODS FOR TREATING CHRONIC RESPIRATORY INFLAMMATION” (The University of Hong Kong, priority 2010, published 2011)", "molecules": {"B1": {"name": "eglin C (peptide, UniProt P01051 1-70, looked up)", "Eglin C": "TEFGSELKSFPEVVGKTVDQAREYFTLHYPQYDVYFLPEGSPVTLDLRYNRVRVFYNPGTNVVNHVPHVG"}}, "key": {"NE [1]": {"biological_target": "T1, NE (Homo sapiens, UniProt P08246)", "T1 sequence (P08246 30-267)": "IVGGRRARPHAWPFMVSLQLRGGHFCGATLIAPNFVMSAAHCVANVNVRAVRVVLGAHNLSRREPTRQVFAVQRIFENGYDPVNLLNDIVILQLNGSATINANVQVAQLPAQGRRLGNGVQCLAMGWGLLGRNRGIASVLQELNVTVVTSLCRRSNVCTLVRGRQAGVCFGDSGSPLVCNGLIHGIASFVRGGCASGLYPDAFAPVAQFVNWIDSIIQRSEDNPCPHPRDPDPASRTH", "experiment": "Surface plasmon resonance competition assay, NE binding to HS-SA sensor chip", "conditions": "for competition for NE binding to immobilized HS (in words): solution-surface competition, SPR; for competitive effectiveness (inhibition of NE binding to immobilized HS): NE at 1,000 nM, competing glycosaminoglycans at 1,000 ng/ml", "procedure": "(§1) Interactions of HS and NE were analyzed with a BIAcore 2,000 optical biosensor (BIAcore, Uppsala, Sweden). HS chains recovered from rhSyn-1 after LiOH treatment were biotinylated at the reducing ends (68 nmol biotin/mg HS, as determined by Quant*Tag Biotin kit; Vector Laboratories, Peterborough, UK). By a 2-minute injection of biotinylated HS, […] in 10 mM Hepes (pH 7.4), 0.15 M NaCl, and 0.005% P20 surfactant (HBS-P; BIAcore), at a flow rate of […] onto the streptavidin (SA) sensor chip (BIAcore), increase in 250 resonance units indicated successful immobilization of HS onto the sensor chip. Increasing concentrations of NE in HBS-P buffer were perfused (at […] for 2 min) in turn over the HS-SA sensor chip, each followed by perfusion of buffer to facilitate dissociation. Responses were monitored at 25° C. The sensor chip was regenerated with perfusion of 2 M NaCl/HBS-P. Resonance data obtained from sensorgrams were evaluated with BIAevaluation 3.0 software (BIAcore) to yield rate constants for association (ka), dissociation (kd) and the equilibrium dissociation constant (Kd). For competition assays, NE (2,000 nM) premixed at 1:1 (vol/vol) with defined concentrations (250-2,000 ng/ml) of the competing glycosaminglycan-chondroitin 4-sulfate (C4S), heparin, and chemically modified heparins (N-desulfated re-N-acetylated, completely desulfated re-N-acetylated, or 2-O and 6-O desulfated and N-sulfated; Seikagaku) in HBS-P buffer for 30 minutes at 4° C. was injected onto the HS-SA sensor chip at […]. Dissociation and regeneration procedures were as described above. […] All experiments were preformed in duplicate. Resonance data obtained from sensorgrams were plotted as percent inhibition relative to that obtained without competing glycosaminoglycan. The concentration of competing glycosaminoglycan that interfered with NE binding to the HS-SA sensor by 50% was determined using the statistical program, PRISM (GraphPad, Inc., San Diego, Calif.)."}, "NE [2]": {"biological_target": "T1, NE", "experiment": "Surface plasmon resonance analysis of NE-HS binding", "procedure": "as §1"}, "rhSyn-1": {"biological_target": "T2, rhSyn-1 (Homo sapiens, UniProt P18827)", "T2 construct": "made in house", "T2 sequence (P18827 23-310)": "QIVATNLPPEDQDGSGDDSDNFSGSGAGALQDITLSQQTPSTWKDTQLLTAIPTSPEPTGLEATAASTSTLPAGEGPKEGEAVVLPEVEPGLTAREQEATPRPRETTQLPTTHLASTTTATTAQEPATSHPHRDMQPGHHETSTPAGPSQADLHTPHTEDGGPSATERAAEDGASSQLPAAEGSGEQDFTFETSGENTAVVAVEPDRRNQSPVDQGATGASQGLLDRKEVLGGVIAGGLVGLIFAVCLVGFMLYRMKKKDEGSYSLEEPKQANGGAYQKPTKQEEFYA", "experiment": "Western ligand blot of rhSyn-1", "type": "binding", "procedure": "Sputum sol was treated (30 min, 24° C.) with the mucolytic reducing agent, DTT (5 mM; Sigma) to deactivate NE, dialyzed against PBS (16 h, 4° C.) to remove DTT, and then incubated (16 h, 37° C.) with HS^ase I and II (0.01 unit each; Seikagaku, Tokyo, Japan) or chondroitinase ABC (0.01 unit; Seikagaku). Control treatments were performed in the relevant incubation buffer (product sheet; Seikagaku), but without the indicated enzymes. The digestion products were subjected to Western blot and Western ligand blot analyses. Recombinant Syn-1 was similarly treated, deglycanated, and analyzed, but without prior treatment with DTT.\nSputum sol samples were treated with DTT, as described above, and then subjected to SDS-PAGE in a 10% gel under nonreducing conditions. The gel electrophoretogram was electroblotted onto polyvinylidene fluoride membrane and nonspecific binding was blocked with 5% nonfat dry milk (1 h, 24° C.) before the blot was probed for the epitope of interest. […] Secondary antibodies were conjugated with horseradish peroxidase. The membranes were washed with PBS-Tween® 20 between incubations. Visualization was enhanced with an enhanced chemiluminescence kit (Amersham Biosciences, Piscataway, N.J.). […]"}, "NE [3]": {"biological_target": "T1, NE", "experiment": "Inhibition of NE activity in the presence of rhSyn-1 or sputum sol", "type": "biochemical", "conditions": "incubations with rhSyn-1 and with sputum samples, with and without prior HS^ase I and II treatment", "quoted_text": "Unopposed NE activity in sputum sol was assessed for equivalent molar concentration by active-site titration. The NE activity of sputum sol was estimated using MeO-Suc-Ala-Ala-Pro-Val-p-nitroanilide as substrate at 2 mM in 0.2 M Tris-HCl, 0.5 M NaCl (pH 8.0); the hydrolytic release of p-nitroaniline was followed at 410 nm, 37° C. (molar extinction coefficient at 410 nm=8,800). An equivalent activity of purified human NE (Sigma, St. Louis, Mo.) was titrated with increasing concentrations of the irreversible inhibitor, MeO-Suc-Ala-Ala-Pro-Val-CMK (Calbiochem, La Jolla, Calif.), and the residual activities were measured.\nThe inhibitor effects were compared with those of parallel procedure performed on DTT-pretreated sputum sol samples of the 12 patient recruits."}, "[4]": {"conditions": "NE over immobilized HS, 1:1 Langmuir model"}}, "data": [{"molecule": "Completely desulfated and re-N-acetylated heparin", "values": [{"measurement": "competition for NE binding to immobilized HS (in words)", "setting": "NE [1]", "result": "failed to outcompete"}]}, {"molecule": "heparan sulfate [HS]", "values": [{"measurement": "Kd", "setting": "NE [2]; NE (50-1,500 nM) perfused over immobilized HS from rhSyn-1, 1:1 Langmuir model, 25° C., read-out: equilibrium dissociation constant (Kd)", "result": 14.2, "unit": "nM"}, {"measurement": "ka, rate constant for association", "setting": "NE [2]; [4]", "result": "3.31 ± 0.14 × 10^4 M^−1s^−1"}, {"measurement": "kd, rate constant for dissociation", "setting": "NE [2]; [4]", "result": "4.69 ± 0.21 × 10^−4 s^−1"}]}, {"molecule": "2-0 and 6-0 desulfated and N-sulfated heparin", "values": [{"measurement": "competitive effectiveness (inhibition of NE binding to immobilized HS)", "setting": "NE [1]", "result": "approximately 60%"}]}, {"molecule": "alpha-1-antitrypsin [α1-AT]", "values": [{"measurement": "binding to glycanated rhSyn-1", "setting": "rhSyn-1", "result": "not"}, {"measurement": "binding to deglycanated rhSyn-1 core protein", "setting": "rhSyn-1; after heparitinase and chondroitinase treatments", "result": "binding"}]}, {"molecule": "N-desulfated and re-N-acetylated heparin", "values": [{"measurement": "competitive effectiveness (inhibition of NE binding to immobilized HS)", "setting": "NE [1]", "result": "approximately 75%"}]}, {"molecule": "heparin", "values": [{"measurement": "competitive effectiveness (inhibition of NE binding to immobilized HS)", "setting": "NE [1]", "result": 95, "unit": "%"}, {"measurement": "competition for NE binding to immobilized HS (in words)", "setting": "NE [1]", "result": "Effective competition"}]}, {"molecule": "chondroitin 4-sulfate [C4S]", "values": [{"measurement": "competition for NE binding to immobilized HS (in words)", "setting": "NE [1]", "result": "failed to outcompete"}, {"measurement": "competition for NE binding to immobilized HS (in words)", "setting": "NE [1]; listed as CS", "result": "not"}]}, {"molecule": "B1", "values": [{"measurement": "inhibition of NE activity (in words)", "setting": "NE [3]", "result": "complete inhibition"}]}]}
